In ChEMBL document CHEMBL5465560, “Selectivity Literature for EUbOPEN Chemogenomic Library” (2024):

Experiments:
[1] = target: T1, Mitogen-activated protein kinase kinase kinase 2 (Homo sapiens) (UniProt Q9Y2U5); experiment: Selectivity interaction (KinomeScan (DiscoverX)) EUB0000045b MAP3K2
T1 sequence (whole entry): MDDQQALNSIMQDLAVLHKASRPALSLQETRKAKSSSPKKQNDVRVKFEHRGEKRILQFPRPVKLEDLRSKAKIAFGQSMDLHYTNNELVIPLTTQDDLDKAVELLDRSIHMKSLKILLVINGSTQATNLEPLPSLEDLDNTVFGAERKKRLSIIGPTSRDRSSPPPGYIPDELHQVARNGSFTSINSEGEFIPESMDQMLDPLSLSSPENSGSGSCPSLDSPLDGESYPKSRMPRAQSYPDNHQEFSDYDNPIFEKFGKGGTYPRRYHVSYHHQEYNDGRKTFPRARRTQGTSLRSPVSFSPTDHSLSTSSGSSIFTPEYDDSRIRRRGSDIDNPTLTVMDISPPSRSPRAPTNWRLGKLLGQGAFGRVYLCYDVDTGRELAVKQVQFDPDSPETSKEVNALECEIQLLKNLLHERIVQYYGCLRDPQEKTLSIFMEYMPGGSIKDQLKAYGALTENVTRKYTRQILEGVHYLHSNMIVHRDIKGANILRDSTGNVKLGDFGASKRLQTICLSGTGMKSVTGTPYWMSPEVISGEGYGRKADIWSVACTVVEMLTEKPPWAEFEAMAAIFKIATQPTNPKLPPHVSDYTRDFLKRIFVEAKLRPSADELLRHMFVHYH

[2] = target: T2, Phosphatidylinositol 5-phosphate 4-kinase type-2 gamma (Homo sapiens) (UniProt Q8TBX8); experiment: Selectivity interaction (KinomeScan (DiscoverX)) EUB0001079a PIP4K2C; details: at 1 µM
T2 sequence (whole entry): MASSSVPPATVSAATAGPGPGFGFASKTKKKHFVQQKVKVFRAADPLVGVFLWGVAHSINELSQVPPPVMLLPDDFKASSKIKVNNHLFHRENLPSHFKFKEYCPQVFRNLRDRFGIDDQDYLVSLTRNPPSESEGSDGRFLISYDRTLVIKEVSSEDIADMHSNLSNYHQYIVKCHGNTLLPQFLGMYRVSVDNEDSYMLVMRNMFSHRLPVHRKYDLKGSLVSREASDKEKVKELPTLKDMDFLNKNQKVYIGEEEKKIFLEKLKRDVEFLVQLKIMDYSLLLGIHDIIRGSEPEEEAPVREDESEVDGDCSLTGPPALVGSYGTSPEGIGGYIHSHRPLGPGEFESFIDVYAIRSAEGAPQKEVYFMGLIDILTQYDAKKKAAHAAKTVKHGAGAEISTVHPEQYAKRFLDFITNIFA

[3] = target: Vascular endothelial growth factor receptor 3 (Homo sapiens, UniProt P35916); details: at 10 µM
Vascular endothelial growth factor receptor 3, sequence (P35916 whole entry): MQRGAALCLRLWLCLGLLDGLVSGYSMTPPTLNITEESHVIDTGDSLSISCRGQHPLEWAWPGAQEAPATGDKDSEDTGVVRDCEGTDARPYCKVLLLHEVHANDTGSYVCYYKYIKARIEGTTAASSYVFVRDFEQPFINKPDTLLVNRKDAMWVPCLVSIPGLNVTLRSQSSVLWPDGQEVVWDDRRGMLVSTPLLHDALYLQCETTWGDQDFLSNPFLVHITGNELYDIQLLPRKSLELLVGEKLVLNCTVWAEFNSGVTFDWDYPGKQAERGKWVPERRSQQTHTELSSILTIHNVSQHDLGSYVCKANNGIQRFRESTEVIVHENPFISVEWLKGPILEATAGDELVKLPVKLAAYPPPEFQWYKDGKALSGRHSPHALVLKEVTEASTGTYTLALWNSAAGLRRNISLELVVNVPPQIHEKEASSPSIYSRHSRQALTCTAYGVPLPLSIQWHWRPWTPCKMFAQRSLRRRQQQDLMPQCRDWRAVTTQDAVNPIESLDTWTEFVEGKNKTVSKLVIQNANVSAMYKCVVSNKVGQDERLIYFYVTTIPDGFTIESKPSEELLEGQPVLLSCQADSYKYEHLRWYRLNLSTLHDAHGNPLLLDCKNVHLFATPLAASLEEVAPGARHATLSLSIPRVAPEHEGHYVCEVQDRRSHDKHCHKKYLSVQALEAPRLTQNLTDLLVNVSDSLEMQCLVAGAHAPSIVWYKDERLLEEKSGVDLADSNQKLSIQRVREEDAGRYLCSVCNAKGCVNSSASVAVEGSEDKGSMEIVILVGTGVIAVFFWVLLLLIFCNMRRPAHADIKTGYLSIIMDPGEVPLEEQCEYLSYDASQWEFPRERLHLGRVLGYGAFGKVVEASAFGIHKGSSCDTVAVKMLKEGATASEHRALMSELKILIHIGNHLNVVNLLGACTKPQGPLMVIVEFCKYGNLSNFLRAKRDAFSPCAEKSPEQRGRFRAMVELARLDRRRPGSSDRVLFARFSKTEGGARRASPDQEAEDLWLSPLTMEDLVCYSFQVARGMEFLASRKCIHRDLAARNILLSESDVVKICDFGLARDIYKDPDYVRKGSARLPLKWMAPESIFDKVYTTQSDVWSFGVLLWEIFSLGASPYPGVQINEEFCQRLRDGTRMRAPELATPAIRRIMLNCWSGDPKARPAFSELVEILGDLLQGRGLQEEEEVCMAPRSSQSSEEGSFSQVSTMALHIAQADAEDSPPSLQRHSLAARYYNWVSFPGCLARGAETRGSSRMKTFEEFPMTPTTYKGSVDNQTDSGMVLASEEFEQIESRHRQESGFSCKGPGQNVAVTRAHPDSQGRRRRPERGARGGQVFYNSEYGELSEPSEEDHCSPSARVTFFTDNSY

[4] = target: Dual specificity mitogen-activated protein kinase kinase 1 (Homo sapiens, UniProt Q02750); experiment: Selectivity interaction (SelectScreen profiling (Invitrogen)) EUB0000607a MAP2K1; details: at 2 µM
Dual specificity mitogen-activated protein kinase kinase 1, sequence (Q02750 whole entry): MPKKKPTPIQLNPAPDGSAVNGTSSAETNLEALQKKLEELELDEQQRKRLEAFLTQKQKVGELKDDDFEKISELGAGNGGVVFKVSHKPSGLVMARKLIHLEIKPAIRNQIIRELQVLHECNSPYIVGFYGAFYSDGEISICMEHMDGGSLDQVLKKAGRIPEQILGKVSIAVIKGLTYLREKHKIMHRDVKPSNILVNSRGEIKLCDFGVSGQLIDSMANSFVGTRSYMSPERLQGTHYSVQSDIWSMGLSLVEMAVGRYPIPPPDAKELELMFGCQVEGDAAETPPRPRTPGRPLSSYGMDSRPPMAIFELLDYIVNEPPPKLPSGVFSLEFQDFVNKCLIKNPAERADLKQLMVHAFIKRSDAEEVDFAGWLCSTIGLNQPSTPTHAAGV

[5] = target: T3, Bone morphogenetic protein receptor type-2 (Homo sapiens) (UniProt Q13873); experiment: Selectivity interaction (KinomeScan (DiscoverX)) EUB0000618a BMPR2; details: at 10 µM
T3 sequence (whole entry): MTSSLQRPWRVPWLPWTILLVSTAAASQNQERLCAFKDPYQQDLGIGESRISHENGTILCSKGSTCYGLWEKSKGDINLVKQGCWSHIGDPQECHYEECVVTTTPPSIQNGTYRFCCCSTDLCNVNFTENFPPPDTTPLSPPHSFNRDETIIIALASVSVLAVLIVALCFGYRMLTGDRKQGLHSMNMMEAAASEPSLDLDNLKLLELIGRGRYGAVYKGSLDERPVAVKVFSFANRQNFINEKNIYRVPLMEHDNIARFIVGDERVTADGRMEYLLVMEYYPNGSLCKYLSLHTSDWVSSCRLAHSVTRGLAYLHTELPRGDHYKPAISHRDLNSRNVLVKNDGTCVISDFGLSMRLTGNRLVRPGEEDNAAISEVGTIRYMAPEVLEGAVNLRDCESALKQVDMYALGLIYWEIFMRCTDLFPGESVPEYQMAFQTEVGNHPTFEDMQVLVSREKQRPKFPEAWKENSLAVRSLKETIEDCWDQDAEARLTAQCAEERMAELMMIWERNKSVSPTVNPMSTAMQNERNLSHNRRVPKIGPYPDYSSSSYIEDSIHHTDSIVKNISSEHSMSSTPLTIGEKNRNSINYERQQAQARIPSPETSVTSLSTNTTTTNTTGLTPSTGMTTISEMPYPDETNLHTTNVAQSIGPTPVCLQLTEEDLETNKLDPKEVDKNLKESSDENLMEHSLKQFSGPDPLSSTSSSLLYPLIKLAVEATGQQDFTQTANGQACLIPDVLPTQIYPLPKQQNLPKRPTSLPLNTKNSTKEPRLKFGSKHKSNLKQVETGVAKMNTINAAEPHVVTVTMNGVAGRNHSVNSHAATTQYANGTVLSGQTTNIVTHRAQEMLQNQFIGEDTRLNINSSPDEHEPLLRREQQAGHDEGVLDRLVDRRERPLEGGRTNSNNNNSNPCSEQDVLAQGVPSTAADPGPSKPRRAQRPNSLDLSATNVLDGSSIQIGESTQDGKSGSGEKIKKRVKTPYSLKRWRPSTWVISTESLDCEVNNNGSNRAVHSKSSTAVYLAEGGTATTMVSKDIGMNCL

[6] = target: T4, Protein kinase C iota type (Homo sapiens) (UniProt P41743); experiment: Selectivity interaction (ActivX KiNativ screen (kinase selectivity in THP-1 cell lysates)) EUB0000639a PRKCI; type: subcellular; details: lysate, at 0.01 µM
T4 sequence (whole entry): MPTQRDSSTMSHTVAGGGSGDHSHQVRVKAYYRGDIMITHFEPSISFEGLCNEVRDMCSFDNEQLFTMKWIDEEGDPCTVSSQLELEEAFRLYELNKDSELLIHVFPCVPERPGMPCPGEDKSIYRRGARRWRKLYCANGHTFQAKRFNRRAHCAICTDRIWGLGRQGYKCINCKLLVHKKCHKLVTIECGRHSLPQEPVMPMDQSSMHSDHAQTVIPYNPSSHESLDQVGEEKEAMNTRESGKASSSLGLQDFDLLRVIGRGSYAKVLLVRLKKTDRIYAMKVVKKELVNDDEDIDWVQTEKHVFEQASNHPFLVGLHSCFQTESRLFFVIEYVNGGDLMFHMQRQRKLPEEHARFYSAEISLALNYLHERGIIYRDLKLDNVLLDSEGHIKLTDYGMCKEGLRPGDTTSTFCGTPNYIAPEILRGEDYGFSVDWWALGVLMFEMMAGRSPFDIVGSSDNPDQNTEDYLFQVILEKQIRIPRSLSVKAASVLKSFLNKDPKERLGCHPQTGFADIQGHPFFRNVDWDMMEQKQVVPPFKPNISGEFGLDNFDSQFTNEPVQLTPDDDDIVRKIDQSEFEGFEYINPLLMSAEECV

In the case of `C=CC(=O)Nc1cc(-n2c(=O)ccc3cnc4ccc(-c5ccc(NS(C)(=O)=O)cc5)cc4c32)ccc1C`, the % of control ([1]; at 1 µM) is reported as 100% and the % of control ([1]; at 10 µM) is reported as 100%.
`Nc1cnc(N2CCc3cc(S(=O)(=O)Nc4c(F)cc(Cl)cc4F)cc(N4CCCC4=O)c32)nc1` [TP-020n] gave a % of control [2] of 100%.
Molecule `Cc1cc([C@@H](C)Nc2ccccc2C(=O)O)c2nc(N3CCOCC3)cc(=O)n2c1` [AZD-6482] has a % of control [3] of 95%.
Work on `CNC(=O)Nc1ccc(-c2nc(N3CC4CCC(C3)O4)c3cnn(C4CCC5(CC4)OCCO5)c3n2)cc1` yielded a % of inhibition [4] of 3%.
`O[C@H]1CC[C@H](Nc2ncc3nc(Nc4c(F)cc(F)cc4F)n([C@H]4CCOC4)c3n2)CC1` showed a % of control [5] of 78%.
In the case of `CC[C@@H]1[C@H](F)C(=O)N[C@@H]1COc1nccc2cc(C(N)=O)c(OC)cc12` [ZIMLOVISERTIB], the % of inhibition [6] is reported as -6.4%.
